# Data from patent US20120244106A1 (SANOFI-AVENTIS U.S. LLC, priority 2009, published 2012).
# Tests used:
# Format in all cases: in vivo, humans
# [1] = test system: relapsing-remitting multiple sclerosis patients; assay: Safety and tolerability (TEAE, laboratory data), 48-week treatment period; details: 48 weeks
# Method: (§1) Design/Methods: 96 of the 123 patients that were randomized to study treatment ([…]) for the first 6-months in Example 1 completed this 6-month period and accepted to continue medication for an additional 6-month period (placebo: 37, 7 mg: 30, 14 mg: 29). Of the 96 treated patients, 5 patients prematurely withdrew from the study treatment (placebo: 3, 7 mg: 0, and 14 mg: 2). Safety was evaluated from TEAE, physical exam (every 6 weeks), laboratory data (every 6 weeks), vital signs (every 6 weeks), ECG (at the close-out visit), pancreatic ultrasound (at the close-out visit) and brain MRI (at the close-out visit). Relapses were recorded and EDSS was performed every 6-weeks. Annualized relapse rates (ARR) were analyzed by a Poisson model with the total number of confirmed relapses onset between randomization date and last dose date as the response variable, treatment and region as covariates, and log-transformed standardized study duration as an offset variable. The following results report the entire 48-week double-blind treatment period.
# [2] = test system: relapsing-remitting multiple sclerosis patients; assay: Confirmed MS relapses / annualized relapse rate, 48-week treatment period, ITT population; details: 48 weeks
# Method: Safety was evaluated from TEAE, physical exam (every 6 weeks), laboratory data (every 6 weeks), vital signs (every 6 weeks), ECG (at the close-out visit), pancreatic ultrasound (at the close-out visit) and brain MRI (at the close-out visit). Relapses were recorded and EDSS was performed every 6-weeks.
# [3] = test system: relapsing-remitting multiple sclerosis patients; assay: Confirmed MS relapses / annualized relapse rate, 24-week study, ITT population; details: 24 weeks
# Method: (§2) A placebo-controlled, double-blinded, randomized study was conducted in relapsing-remitting multiple sclerosis patients who were concurrently on a stable dose of glatiramer acetate. The dose of glatiramer acetate was 20 mg subcutaneously daily.
# (§3) Around 40 patients were treated in each treatment group (placebo: 41, 7 mg: 42, and 14 mg: 40). […] The mean age of the study population was 41.4 years. […] The base line Expanded Disability Status Scale (EDSS) score was similar between treatment groups (around 2.5). A few more patients had Magnetic Resonance Image (MRI) disease activity (at least one T1-Gd lesion) at baseline in 7 mg group (28.6%) than in placebo (14.6%) and 14 mg (12.8%) groups.
# (§4) Safety was evaluated with reported Treatment Emergent Adverse Events (TEAE), physical examination (every 8-weeks), laboratory data (e.g. Liver Function Test, every 2 weeks), vital signs (every 8-weeks), ECG and abdominal ultrasound (at baseline and at 24-weeks). Brain MRI activity, including T1-gadolinium (T1-Gd) lesions with central reading was recorded every 8-weeks, EDSS scores were recorded at baseline and at 24-weeks, Fatigue impact scale was assessed every 8-weeks, and relapses were assessed at every clinical visit.
# Twenty-nine patients experienced a total of 30 confirmed relapses. Two relapses occurred after treatment discontinuation (1 day in one placebo patient, 41 days in one 7 mg patient). Therefore, 28 confirmed relapses occurring in 27 patients were included in the analysis (Table 3).
# [4] = test system: relapsing-remitting multiple sclerosis patients; assay: Brain MRI Gd-enhancing T1-lesions (number and volume), entire 48-week double-blind treatment period, ITT population
# Method: as §1
# One patient (14 mg group) had one day participation in the study and had no valid baseline MRI data. Two other patients, one in 7 mg and one in 14 mg, prematurely discontinued the study and no post baseline MRI was collected.
# [5] = test system: relapsing-remitting multiple sclerosis patients; assay: Safety and tolerability (TEAE, laboratory data), 24-week study; details: 24 weeks
# Method: as §2
# Around 40 patients were treated in each treatment group (placebo: 41, 7 mg: 42, and 14 mg: 40).
# as §4
# [6] = test system: relapsing-remitting multiple sclerosis patients; assay: Brain MRI Gd-enhancing T1-lesions (number and volume), 24-week placebo-controlled add-on study, ITT population; details: 24 weeks
# Method: as §2, §3, §4
# [7] = 7 mg teriflunomide + GA 20 mg sc daily
# [8] = 14 mg teriflunomide + GA 20 mg sc daily (group not given)
# [9] = 14 mg teriflunomide + GA 20 mg sc daily
# [10] = the two teriflunomide groups (7 mg, 14 mg) + GA vs placebo + GA
# [11] = 7 mg teriflunomide + GA 20 mg sc daily, 48 weeks
# [12] = 7 mg or 14 mg teriflunomide + GA
smiles,measurement,setting,value
"C/C(O)=C(\C#N)C(=O)Nc1ccc(C(F)(F)F)cc1 [teriflunomide, (Z)-2-cyano-3-hydroxy-but-2-enoic acid-(4′-trifluoromethylphenyl)-amide]",Number of patients experiencing a serious TEAE,[1]; [7],5
same,Number of patients with TEAE leading to treatment discontinuation,[1]; [7],3
same,Patients experiencing a serious TEAE (%),[1]; [7],11.9%
same,Patients who experienced a TEAE related to hypertension (number),[1]; [7],2
same,Patients with ALT greater than 3×ULN,[1]; [7],0
same,Patients with TEAE leading to treatment discontinuation (%),[1]; [7],7.1%
same,Proportion of patients experiencing a TEAE related to hypersensitivity,[1]; [7],14.3%
same,Proportion of patients with a TEAE potentially related to immunosuppression (all infections and hematological disorders),[1]; [7],52.4%
same,Proportion of patients with a TEAE related to hepatic disorder,[1]; [7],9.5%
same,TEAE incidence rate,[1]; [7],95.2%
same,Number of patients experiencing a serious TEAE,[1]; [8],2
same,Patients experiencing a serious TEAE (%),[1]; [8],4.9%
same,Number of patients with TEAE leading to treatment discontinuation,[1]; [9],5
same,Patients who experienced a TEAE related to hypertension (number),[1]; [9],2
same,Patients with ALT greater than 3×ULN,[1]; [9],1
same,Patients with TEAE leading to treatment discontinuation (%),[1]; [9],12.2%
same,Proportion of patients experiencing a TEAE related to hypersensitivity,[1]; [9],24.4%
same,Proportion of patients with a TEAE potentially related to immunosuppression (all infections and hematological disorders),[1]; [9],51.2%
same,Proportion of patients with a TEAE related to hepatic disorder,[1]; [9],12.2%
same,TEAE incidence rate,[1]; [9],92.7%
same,Tolerability and safety,"[1]; each dose of teriflunomide (7 mg, 14 mg) combined with GA",acceptable and manageable
same,Proportions of patients with occurrence of decreased WBC and neutrophil counts (PCSA),[1]; [10],slightly higher
same,"Adjusted annualized relapse rate, estimate (Poisson model)",[2]; [7],0.262
same,Number of patients with >=1 relapses: Yes (number of patients),[2]; [7],8
same,Unadjusted annualized relapses rate,[2]; [7],0.281 per patient year
same,"Adjusted annualized relapse rate, estimate (Poisson model)",[2]; [9],0.497
same,Number of patients with >=1 relapses: Yes (number of patients),[2]; [9],15
same,Unadjusted annualized relapses rate,[2]; [9],0.546 per patient year
same,"Adjusted annualized relapse rate, estimate (Poisson model)",[3]; [7],0.311
same,Total number of relapses,[3]; [7],6
same,Unadjusted annualized relapses rate,[3]; [7],0.337 per patient year
same,"Adjusted annualized relapse rate, estimate (Poisson model)",[3]; [9],0.647
same,Total number of relapses,[3]; [9],12
same,Unadjusted annualized relapses rate,[3]; [9],0.710 per patient year
same,Patients with >=1 Gd-enhancing T1-lesions post-baseline: No (% of patients),[4]; [11],56.1%
same,Unadjusted Gd-enhancing T1-lesions per scan,[4]; [11],0.317
same,Unadjusted Gd-enhancing T1-lesions per scan,"[4]; 14 mg teriflunomide + GA 20 mg sc daily, 48 weeks",0.233
same,Controlling disease activity as measured by T1-Gd lesions,"[4]; teriflunomide added to GA, one-year study",trend to benefit
same,Concurrent increase in ALT>3ULN and in total bilirubin>2ULN,[5]; [12],No case
same,Deaths,[5]; [12],No patients died
same,Number of patients with TEAE leading to treatment discontinuation,[5]; [7],3
same,Patients with ALT greater than 3ULN,[5]; [7],0
same,Patients with TEAE leading to treatment discontinuation (%),[5]; [7],7.1%
same,Proportion of patients with TEAE potentially related to immunosuppression,[5]; [7],43%
same,Proportion of patients with a TEAE related to hepatic disorder,[5]; [7],9.5%
same,TEAE incidence rate,[5]; [7],83.3%
same,Number of patients with TEAE leading to treatment discontinuation,[5]; [9],4
same,Patients with ALT greater than 3ULN,[5]; [9],1
same,Patients with TEAE leading to treatment discontinuation (%),[5]; [9],10%
same,Proportion of patients with TEAE potentially related to immunosuppression,[5]; [9],38%
same,Proportion of patients with a TEAE related to hepatic disorder,[5]; [9],12.2%
same,TEAE incidence rate,[5]; [9],87.5%
same,Tolerability and safety,"[5]; each teriflunomide dose (7 mg, 14 mg) combined with GA",acceptable
same,Proportion of patients with occurrence of decreased WBC count and neutrophils (PCSA),[5]; [10],slightly higher
same,Patients with >=1 Gd-enhancing T1-lesions post-baseline: No (% of patients),[6]; [7],61.0%
same,Unadjusted Gd-enhancing T1-lesions per scan,[6]; [7],0.321
same,Unadjusted Gd-enhancing T1-lesions per scan,[6]; [9],0.262
same,Disease control as evaluated by T1-Gd MRI activity,[6]; teriflunomide added to stable-dosed GA,improved disease control beyond glatiramer acetate alone
